According to patent US8889638B2, “Stimulus-triggered prodrugs” (The Regents of the University of California, priority 2010, dated 2014):

What was measured:
MMP-12 = MMP-12 (Homo sapiens, UniProt P39900); conditions: read-out: IC50 against MMP-12; cited from earlier work
MMP-3 = MMP-3 (Homo sapiens, UniProt P08254); conditions: read-out: IC50 against MMP-3; cited from earlier work
MMP-8 = MMP-8 (Homo sapiens, UniProt P22894); conditions: read-out: IC50 against MMP-8; cited from earlier work
[1] = target: T1, MMP-9 (catalytic domain, human, recombinant) (Homo sapiens, UniProt P14780); assay: MMP-9 inhibition assay of boronic ester proinhibitors (IC50; activation with H2O2); type: biochemical; conditions: active inhibitor; read-out: IC50 against MMP-9
T1 construct: MMP-9 (catalytic domain, human, recombinant); purchased BIOMOL International
Experimental: MMP-9 (catalytic domain, human, recombinant) and MMP-12 (catalytic domain, human, recombinant) were purchased from Enzo Life Sciences. The assays were carried out in 96-well plates using a Bio-Tek Flx 800 plate reader. IC50 values were obtained for proinhibitors B17 and B18 against MMP-9 and MMP-12. Serial dilutions of the compounds dissolved in DMSO were incubated at 37° C. for 30 minutes with 20 μL of the appropriate MMP (0.45 U/mL for MMP-9 and 0.35 U/mL for MMP-12) in MMP assay buffer (50 mM HEPES, 10 mM CaCl2, 0.10% Brij-35, pH 7.5), for a total volume of 99 pt. The reaction was initiated by the addition of 1 μL (400 μM) of the fluorescent substrate (Mca-Pro-Leu-Gly-Leu-Dpa-Ala-Arg-NH2 where Mca=(7-methoxycoumarin-4-yl)-acetyl and Dpa=N-3-(2,4-dinitrophenyl)-L-α-β-diaminopropionyl)) and kinetic activity was measured every minute for 20 min with excitation and emission wavelengths at 335 nm and 405 nm, respectively. Measurements were performed in duplicate. The percent inhibition was plotted versus the inhibitor concentration. A linear fit of the data for each experiment gives the IC50 value of the inhibitor where y=50%.
MMP activity in the presence of H2O2 was evaluated with both MMP-9 and MMP-12 with 1 h of activation at concentrations close to their IC50 values. Using the calculated rate constants for the protected ZBGs B19 and B20, it was determined that 1 h of activation time for each proinhibitor with 100 μM H2O2 will provide enough 1,2-HOPO-2 or PY-2 to inhibit the MMPs at 50%. For example, for proinhibitor B17 with MMP-9, if the rate=k[B17][H2O2] and k=3.9 M^−1s^−1, [B17]=10 μM, and [H2O2]=100 μM, the rate of conversion would be 3.9×10^−9 M/s. Therefore, activation for 1 h would release 14 μM 1,2-HOPO-2, or enough inhibitor to provide approximately 50% inhibition of MMP-9 (IC50 value for 1,2-HOPO-2 against MMP-9 is ˜6 μM).
In each well, 1 μL of proinhibitors B17 and B18 and the inhibitors 1,2-HOPO-2 and PY-2 in DMSO (1 mM for MMP-9 or 5 μM for MMP-12) were incubated for 1 h at 37° C. with 10 μL H2O2 (1 mM in HEPES buffer, pH 7.5) in MMP assay buffer for a total volume of 79 pt. […] After activation of the proinhibitors, 20 μL of the appropriate MMP (0.45 U/mL for MMP-9 and 0.35 U/mL for MMP-12) was added and incubated for an additional 30 min. The reaction was initiated by the addition of 1 pt (400 μM) of the fluorescent substrate and kinetic activity was measured every minute for 20 min with excitation and emission wavelengths at 335 nm and 405 nm, respectively. Enzyme activity with inhibitor was calculated with respect to the control experiment (no inhibitor present). Measurements were performed in duplicate in two independent experiments.

[2] = Cleavage of boronic ester/acid protected compounds by H2O2 (UV-Vis, rate constant, HPLC); type: physicochemical; conditions: for k, pseudo first-order rate constants calculated with an excess of H2O2: 50 μM in HEPES buffer pH 7.5, room temperature; for rate constant of conversion with an excess of H2O2: pseudo-first order conditions, HEPES buffer
Experimental: (§1) Absorption spectra of compounds B1-B16 were taken on a Perkin-Elmer Lambda 25 UV-visible spectrophotometer. To a 1.0 mL solution at 0.05 mM concentration in HEPES buffer (50 mM, pH 7.5) was added H2O2 (10 uL (0.09 M) in HEPES for compounds B1-B12 and B14-B16, 10 uL (0.9 M) in HEPES for compound B3, and 2.8 uL (0.09 M) in HEPES for compound B13). Spectra were monitored over time at room temperature. Absorption spectra of compounds B17-B21 were taken on a Perkin-Elmer Lambda 25 UV-visible spectrophotometer. To a 1.0 mL solution at 0.05 mM concentration of compounds 1-7 in HEPES buffer (50 mM, pH=7.5) was added H2O2 (10 uL, 0.09 M in HEPES) or KO2 (0.10 mM) with catalase (5 U). Hydrolytic stability was measured by monitoring samples of B19-B21 in HEPES buffer for a 24 h time period. Spectra were monitored over time at room temperature.
The pseudo-first order rate constant was calculated by monitoring the absorption spectra over time in the presence of excess hydrogen peroxide. To a 1.0 mL solution of compounds B1-B3 and B10-B14 in HEPES buffer (50 mM, pH 7.5) at 50 μM was added H2O2 to final concentrations of 150 μM, 250 μM, 500 μM, 750 μM, and 900 μM. Spectra were monitored over 15-30 min at room temperature with at least 50 spectra recorded. The change in absorption at 302 nm for B1-B3, 272 nm for B10, 312 nm for B11, 268 for B12, 306 nm for B13, and 303 nm for B14 were monitored. For compounds B1-B3 and B10-B11, the rate constant (kobs) was found from monitoring the appearance of the monitored absorption peak by plotting the linear slope of ln [(A∞−At)/(A∞)] vs. time (where A∞ is the absorbance of a 50 μM sample of the methyl salicylate for B1-B3, maltol for B10, and 1,2-HOPO for B11). For compounds B12-B14 the rate constant (kobs) was found from monitoring the disappearance of the monitored absorption peak by plotting the linear slope of ln [(A−AZBG)/(A0−AZBG)] vs. time (where AZBG is the absorbance of a 50 μM sample of the ZBG and A0 is the initial absorbance of […]).^3 The rate of conversion was determined from the slope of the line of kobs vs. [H2O2]. The pseudo-first order rate constant was calculated following literature procedure.^[15] To a 1.0 mL solution of compounds B19-B21 in HEPES buffer at 50 μM was added H2O2 to final concentrations of 150 μM, 250 μM, 500 μM, 750 μM, and 900 μM. Spectra were monitored over 15-30 min at room temperature with at least 50 spectra recorded. The change in absorption at 292 nm for B19 and 252 nm for B20 and B21 were monitored. The rate constant (kobs) was found from the linear slope of ln [(A−AZBG)/(A0−AZBG)] vs. time (where AZBG is the absorbance of a 50 μM sample of the ZBG and A0 is the initial absorbance of B19-B21). The rate of conversion was determined from the slope of the line of kobs vs. [H2O2].
Analytical HPLC was performed on a HP Series 1050 system equipped with a Vydac® C18 reverse phase column (218 TP, 250×4.6 mm, 5 μm). […] Starting with 95% A and 5% B, an […] gradient was run for 15 min to a final solvent mixture of 5% A and 95% B, which was held for 5 min before ramping back down to 95% A and 5% B in 2 min and holding for an additional 4 min. Compounds were prepared in HEPES buffer (50 mM, pH 7.5) at a concentration of 1 mM. Retention times of compounds were determined under identical HPLC conditions prior to and after reaction with H2O2. LC-MS(+) was performed on compounds B6, B15 and B16 to confirm cleavage of the boronic ester to the phenolic moiety.

[3] = Solubility in buffered solution / water; type: physicochemical; conditions: relative to the parent analog
[4] = Stability of protected ZBGs towards KO2 with catalase; type: physicochemical; conditions: KO2 0.10 mM and catalase 5 U, 60 min
Experimental: as §1

[5] = Hydrolytic stability of boronic ester compounds in HEPES buffer; type: physicochemical; conditions: 24 h time period
Experimental: as §1

[6] = Cleavage of sulfonate ester PZBGs and proMMPi by H2O2 (UV-Vis, rate constant, HPLC); type: physicochemical; conditions: 50 μM in HEPES buffer, room temperature
Experimental: (§2) Absorption spectra of compounds were taken on a Perkin-Elmer Lambda 25 UV-Visible Spectrophotometer. To a 1.0 mL solution at 0.05 mM concentration of each compound in HEPES buffer (50 mM, pH 7.5) was added H2O2 (10 μL, 0.09M in HEPES) and absorption spectra were monitored over time at room temperature. Hydrolytic stability was measured by monitoring each sample in HEPES buffer over a 24 hour time period.
The pseudo-first order rate constant was calculated following literature procedure. To a 1.0 mL solution of compounds PZBG-1a, PZBG-1b, PZBG-1e, PZBG-5a, and PZBG-5b in HEPES buffer at 50 μM was added H2O2 to final concentrations of 150 μM, 250 μM, 500 μM, 750 μM, and 900 μM. Spectra were monitored over 15-30 min at room temperature with at least 50 spectra recorded at every concentration. The change in absorption at 298 nm for PZBG-1a and PZBG-1b were monitored, while the change in absorption at 288 nm was recorded for PZBG-1e, and 310 nm for PZBG-5a and PZBG-5b. The rate constant (kobs) was found from the linear slope of ln [(A−AZBG)/(Ao−AZBG)] vs. time where AZBG is the absorbance of a 50 μM sample of the ZBG or full-length inhibitor and AO is the initial absorbance of PZBG-1a, PZBG-1b, PZBG-1e, PZBG-5a, and PZBG-5b. The rate of conversion was determined from the slope of the line of kobs vs. [H2O2].
Analytical HPLC was performed on a HP Series 1050 system equipped with a Vydac® C18 reverse phase column (218 TP, 250×4.6 mm, 5 μm). […] Starting with 95% A and 5% B, an […] gradient was run for 15 min to a final solvent mixture of 5% A and 95% B, which was held for 5 min before ramping back down to 95% A and 5% B in 2 min and holding for an additional 4 min. Compounds ZBG-1a and PZBG-1a were prepared in HEPES buffer (50 mM, pH 7.5) at a concentration of 1 mM and retention times were determined. To evaluate cleavage by H2O2, a 1 mM solution of PZBG-1a in HEPES buffer was reacted with a 20-fold excess of H2O2 before analyzing under identical HPLC conditions as before.

[7] = Hydrolytic stability of sulfonate esters in HEPES buffer; type: physicochemical; conditions: in 6 h
Experimental: as §2

MMP-8, sequence (P22894 101-467): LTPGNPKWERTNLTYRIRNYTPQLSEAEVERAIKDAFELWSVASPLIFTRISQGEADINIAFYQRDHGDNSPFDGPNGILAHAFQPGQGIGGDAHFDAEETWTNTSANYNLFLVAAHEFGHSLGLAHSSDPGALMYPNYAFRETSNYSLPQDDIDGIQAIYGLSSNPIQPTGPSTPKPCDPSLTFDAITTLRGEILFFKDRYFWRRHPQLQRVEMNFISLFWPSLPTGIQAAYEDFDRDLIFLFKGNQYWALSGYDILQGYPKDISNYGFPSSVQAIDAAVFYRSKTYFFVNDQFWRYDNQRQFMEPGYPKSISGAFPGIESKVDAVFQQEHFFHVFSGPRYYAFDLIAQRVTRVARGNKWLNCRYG
T1 sequence (P14780 107-444 limits assumed): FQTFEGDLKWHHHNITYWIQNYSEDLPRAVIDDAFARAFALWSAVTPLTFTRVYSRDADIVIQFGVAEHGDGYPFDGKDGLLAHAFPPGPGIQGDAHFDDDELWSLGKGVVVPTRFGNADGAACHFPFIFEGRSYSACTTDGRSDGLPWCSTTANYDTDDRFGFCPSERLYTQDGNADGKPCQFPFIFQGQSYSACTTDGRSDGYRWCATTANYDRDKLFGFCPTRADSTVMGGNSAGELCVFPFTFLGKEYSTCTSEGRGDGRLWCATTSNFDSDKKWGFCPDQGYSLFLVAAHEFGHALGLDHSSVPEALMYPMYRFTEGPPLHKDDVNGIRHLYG
MMP-12, sequence (P39900 106-470): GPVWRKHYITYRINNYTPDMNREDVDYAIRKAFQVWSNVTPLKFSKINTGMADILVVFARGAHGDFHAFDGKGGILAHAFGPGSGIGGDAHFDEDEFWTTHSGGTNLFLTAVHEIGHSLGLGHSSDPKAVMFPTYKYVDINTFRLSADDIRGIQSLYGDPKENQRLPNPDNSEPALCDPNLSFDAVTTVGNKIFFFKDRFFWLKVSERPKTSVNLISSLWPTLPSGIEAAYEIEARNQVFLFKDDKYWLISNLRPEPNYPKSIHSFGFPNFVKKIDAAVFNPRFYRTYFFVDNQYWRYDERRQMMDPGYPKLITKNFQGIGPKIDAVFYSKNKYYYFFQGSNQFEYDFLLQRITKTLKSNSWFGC
MMP-3, sequence (P08254 100-477, species assumed): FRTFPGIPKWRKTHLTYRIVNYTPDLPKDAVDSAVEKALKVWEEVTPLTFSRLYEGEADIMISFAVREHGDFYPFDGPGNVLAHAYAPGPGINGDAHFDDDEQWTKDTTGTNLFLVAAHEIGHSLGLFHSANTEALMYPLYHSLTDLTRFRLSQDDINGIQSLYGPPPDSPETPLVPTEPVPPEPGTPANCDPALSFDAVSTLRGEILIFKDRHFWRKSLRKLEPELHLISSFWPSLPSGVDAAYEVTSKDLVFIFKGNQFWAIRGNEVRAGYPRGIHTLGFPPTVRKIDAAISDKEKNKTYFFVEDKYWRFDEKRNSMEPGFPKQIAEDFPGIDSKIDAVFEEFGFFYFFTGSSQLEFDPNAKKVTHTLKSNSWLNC

Structure (SMILES) | solubility [3] | stability towards KO2 [4] | solution stability in buffer [5] | k, pseudo first-order rate constants calculated with an excess of H2O2 [2] [M⁻¹ s⁻¹] | rate constant of conversion with an excess of H2O2 [2] [M⁻¹ s⁻¹] | other results
O=C(NCc1ccc(-c2ccccc2)cc1)c1cccc(=O)n1O [1,2-HOPO-2, N-(Biphenyl-4-ylmethyl)-1-hydroxy-6-oxo-1,6-dihydropyridine-2-carboxamide] |  |  |  |  |  | IC50 (MMP-12): < 100 nM; IC50 (MMP-3): < 100 nM; IC50 (MMP-8): < 100 nM; IC50 [1]: ~6000 nM
Cc1occc(=O)c1OCc1ccc(B(O)O)cc1 [Compound B10, (4-(((2-Methyl-4-oxo-4H-pyran-3-yl)oxy)methyl)phenyl)boronic acid] | improved solubility |  |  | 3.1 ± 0.5 |  | 
O=C(O)c1ccc(S(=O)(=O)On2ccccc2=O)cc1 [PZBG-1e, 4-(((2-Oxopyridin-1(2H)-yl)oxy)sulfonyl)benzoic acid] | substantial increase in solubility |  |  |  |  | pseudo-first order rate constant with an excess of H2O2 [6]: 1.3 M⁻¹ s⁻¹; cleavage in buffer [7]: ~50%

Further lines, with some results ahead:

solubility [3] | stability towards KO2 [4] | solution stability in buffer [5] | Structure (SMILES) | k, pseudo first-order rate constants calculated with an excess of H2O2 [2] [M⁻¹ s⁻¹] | rate constant of conversion with an excess of H2O2 [2] [M⁻¹ s⁻¹] | other results
improved solubility |  |  | O=c1ccccn1OCc1ccc(B(O)O)cc1 [Compound B11, (4-(((2-Oxopyridin-1(2H)-yl)oxy)methyl)phenyl)boronic acid] | 5.9 ± 0.2 | 5.9 | 
 | stable towards KO2 | stable | CC1(C)OB(c2ccc(COn3ccccc3=O)cc2)OC1(C)C [Compound B19, 1-((4-(4,4,5,5-tetramethyl-1,3,2-dioxaborolan-2-yl)benzyl)oxy)pyridin-2(1H)-one] |  | 4.0 | 
 | stable towards KO2 | stable | Cc1occc(=O)c1OCc1ccc(B2OC(C)(C)C(C)(C)O2)cc1 [Compound B20, 2-methyl-3-((4-(4,4,5,5-tetramethyl-1,3,2-dioxaborolan-2-yl)benzyl)oxy)-4H-pyran-4-one] |  | 2.9 | 
